Results published in PubChem BioAssay AID1963872 (Molecular Pharmacology Branch, DTP, NCI, 2024).

Tested on: KRAS patient-derived spheroids with HUVEC/MSC, viability
Assay: Anticancer human tumor 519858-162-T-J1-PDC patient-derived colon adenocarcinoma cell line growth inhibition [KRAS2]
Conditions: for viability, T/C: stronger effect = lower value
Summary of the method: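 Combination screen of spheroid viability in tumor-cell co-cultures with endothelial (HUVEC) and mesenchymal stem cell stroma. Each agent was tested in half-log dilutions, topping at clinical Cmax or at 10 microM without a known Cmax.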

[1] = curve of first compound, second compound 0.1 µM
[2] = curve of first compound, second compound 0.316 µM
[3] = curve of first compound, second compound 1 µM
[4] = curve of first compound, second compound 3.16 µM
[5] = curve of first compound, second compound 10 µM
[6] = second compound 0.1 µM, first compound 0.0316 µM
[7] = second compound 0.1 µM, first compound 0.1 µM
[8] = second compound 0.1 µM, first compound 0.316 µM
[9] = second compound 0.1 µM, first compound 1 µM
[10] = second compound 0.1 µM, first compound 3.16 µM
[11] = second compound 0.1 µM, first compound 10 µM
[12] = second compound 0.316 µM, first compound 0.0316 µM
[13] = second compound 0.316 µM, first compound 0.1 µM
[14] = second compound 0.316 µM, first compound 0.316 µM
[15] = second compound 0.316 µM, first compound 1 µM
[16] = second compound 0.316 µM, first compound 3.16 µM
[17] = second compound 0.316 µM, first compound 10 µM
[18] = second compound 1 µM, first compound 0.0316 µM
[19] = second compound 1 µM, first compound 0.1 µM
[20] = second compound 1 µM, first compound 0.316 µM
[21] = second compound 1 µM, first compound 1 µM
[22] = second compound 1 µM, first compound 3.16 µM
[23] = second compound 1 µM, first compound 10 µM
[24] = second compound 3.16 µM, first compound 0.0316 µM
[25] = second compound 3.16 µM, first compound 0.1 µM
[26] = second compound 3.16 µM, first compound 0.316 µM
[27] = second compound 3.16 µM, first compound 1 µM
[28] = second compound 3.16 µM, first compound 3.16 µM
[29] = second compound 3.16 µM, first compound 10 µM
[30] = second compound 10 µM, first compound 0.0316 µM
[31] = second compound 10 µM, first compound 0.1 µM
[32] = second compound 10 µM, first compound 0.316 µM
[33] = second compound 10 µM, first compound 1 µM
[34] = second compound 10 µM, first compound 3.16 µM
[35] = second compound 10 µM, first compound 10 µM
[36] = second compound 0.1 µM, first compound 0.01 µM
[37] = second compound 0.316 µM, first compound 0.01 µM
[38] = second compound 1 µM, first compound 0.01 µM
[39] = second compound 3.16 µM, first compound 0.01 µM
[40] = second compound 10 µM, first compound 0.01 µM
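Note: compound exposure lasted seven days before readout.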
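Throughout, for viability, T/C: 100% = DMSO vehicle control viability.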

COc1cc(Nc2ncc3c(n2)-c2ccc(Cl)cc2C(c2c(F)cccc2OC)=NC3)ccc1C(=O)O
viability, T/C (compound 0.1 µM): 74.8% [middle of 5 runs]
IC50 (curve of compound): > 10000 nM

COc1cc(Nc2ncc3c(n2)-c2ccc(Cl)cc2C(c2c(F)cccc2OC)=NC3)ccc1C(=O)O + C=CC(=O)N1CCN(c2nc(=O)n(-c3c(C)ccnc3C(C)C)c3nc(-c4c(O)cccc4F)c(F)cc23)C(C)C1
IC50 [1]: > 10000 nM
IC50 [2]: > 10000 nM
IC50 [3]: > 10000 nM
IC50 [4]: > 10000 nM
IC50 [5]: > 10000 nM
viability, T/C [6]: 104%
viability, T/C [7]: 62.4%
viability, T/C [8]: 89.9%
viability, T/C [9]: 102%
viability, T/C [10]: 104%
viability, T/C [11]: 120%
viability, T/C [12]: 80%
viability, T/C [13]: 91.2%
viability, T/C [14]: 74.1%
viability, T/C [15]: 53.3%
viability, T/C [16]: 89.9%
viability, T/C [17]: 125%
viability, T/C [18]: 97.2%
viability, T/C [19]: 94.4%
viability, T/C [20]: 91.5%
viability, T/C [21]: 85.5%
viability, T/C [22]: 83%
viability, T/C [23]: 125%
viability, T/C [24]: 134%
viability, T/C [25]: 74.8%
viability, T/C [26]: 57.1%
viability, T/C [27]: 90.1%
viability, T/C [28]: 71.3%
viability, T/C [29]: 91.1%
viability, T/C [30]: 95.1%
viability, T/C [31]: 74.1%
viability, T/C [32]: 83%
viability, T/C [33]: 71%
viability, T/C [34]: 73%
viability, T/C [35]: 103%

Cn1nccc1Nc1nccc(-c2cc3c(s2)C(C)(C)N(CCN2CCOCC2)C3=O)n1 + CC1OCC2(CCN(c3cnc(Sc4ccnc(N)c4Cl)c(N)n3)CC2)C1N
IC50 [1]: 3830 nM
IC50 [2]: 1740 nM
IC50 [3]: 341 nM
IC50 [4]: 188 nM
IC50 [5]: 144 nM
viability, T/C [6]: 70.9%
viability, T/C [7]: 71.8%
viability, T/C [8]: 60.6%
viability, T/C [9]: 64.3%
viability, T/C [10]: 54.4%
viability, T/C [11]: 33%
viability, T/C [12]: 66.6%
viability, T/C [13]: 52.6%
viability, T/C [14]: 69.5%
viability, T/C [15]: 62.7%
viability, T/C [16]: 36.2%
viability, T/C [17]: 25.1%
viability, T/C [18]: 50.2%
viability, T/C [19]: 53.7%
viability, T/C [20]: 48.6%
viability, T/C [21]: 41%
viability, T/C [22]: 28.1%
viability, T/C [23]: 30.8%
viability, T/C [24]: 53.6%
viability, T/C [25]: 62.3%
viability, T/C [26]: 41.5%
viability, T/C [27]: 35.6%
viability, T/C [28]: 23.4%
viability, T/C [29]: 28.1%
viability, T/C [30]: 47.5%
viability, T/C [31]: 63.1%
viability, T/C [32]: 38.5%
viability, T/C [33]: 36.8%
viability, T/C [34]: 26.5%
viability, T/C [35]: 34.1%

CC(C)n1nc(-c2ccc3oc(N)nc3c2)c2c(N)ncnc21 + COc1cc2nc(C)nc(NC(C)c3cc(N)cc(C(F)(F)F)c3)c2cc1OC1CCOC1
IC50 [1]: > 100 nM
IC50 [2]: > 100 nM
IC50 [3]: > 100 nM
IC50 [4]: > 100 nM
IC50 [5]: 4.58 nM
viability, T/C (second compound 0.1 µM, first compound 0.000316 µM): 107%
viability, T/C (second compound 0.1 µM, first compound 0.001 µM): 93.9%
viability, T/C (second compound 0.1 µM, first compound 0.00316 µM): 79.3%
viability, T/C [36]: 73%
viability, T/C [6]: 70.9%
viability, T/C [7]: 74.9%
viability, T/C (second compound 0.316 µM, first compound 0.000316 µM): 89.1%
viability, T/C (second compound 0.316 µM, first compound 0.001 µM): 99.8%
viability, T/C (second compound 0.316 µM, first compound 0.00316 µM): 90.2%
viability, T/C [37]: 84.9%
viability, T/C [12]: 73.5%
viability, T/C [13]: 72.2%
viability, T/C (second compound 1 µM, first compound 0.000316 µM): 89.9%
viability, T/C (second compound 1 µM, first compound 0.001 µM): 84.8%
viability, T/C (second compound 1 µM, first compound 0.00316 µM): 75.5%
viability, T/C [38]: 67.8%
viability, T/C [18]: 65.6%
viability, T/C [19]: 77.4%
viability, T/C (second compound 3.16 µM, first compound 0.000316 µM): 117%
viability, T/C (second compound 3.16 µM, first compound 0.001 µM): 84.2%
viability, T/C (second compound 3.16 µM, first compound 0.00316 µM): 93.4%
viability, T/C [39]: 72.5%
viability, T/C [24]: 60.2%
viability, T/C [25]: 84.7%
viability, T/C (second compound 10 µM, first compound 0.000316 µM): 78.1%
viability, T/C (second compound 10 µM, first compound 0.001 µM): 71.7%
viability, T/C (second compound 10 µM, first compound 0.00316 µM): 54.3%
viability, T/C [40]: 42.6%
viability, T/C [30]: 30.2%
viability, T/C [31]: 45.6%

COC(=O)c1ccc2c(C(=Nc3ccc(N(C)C(=O)CN4CCN(C)CC4)cc3)c3ccccc3)c(O)[nH]c2c1 + COc1cc2nc(C)nc(NC(C)c3cc(N)cc(C(F)(F)F)c3)c2cc1OC1CCOC1
IC50 [1]: > 10000 nM
IC50 [2]: > 10000 nM
IC50 [3]: > 10000 nM
IC50 [4]: > 10000 nM
IC50 [5]: 4740 nM
viability, T/C [6]: 71.2%
viability, T/C [7]: 44.7%
viability, T/C [8]: 48.3%
viability, T/C [9]: 71.4%
viability, T/C [10]: 85.2%
viability, T/C [11]: 113%
viability, T/C [12]: 59.1%
viability, T/C [13]: 51.8%
viability, T/C [14]: 92%
viability, T/C [15]: 75.1%
viability, T/C [16]: 62.1%
viability, T/C [17]: 73.7%
viability, T/C [18]: 64.5%
viability, T/C [19]: 57.3%
viability, T/C [20]: 55.1%
viability, T/C [21]: 51.6%
viability, T/C [22]: 51%
viability, T/C [23]: 77.9%
viability, T/C [24]: 64.3%
viability, T/C [25]: 64.6%
viability, T/C [26]: 50.2%
viability, T/C [27]: 55.2%
viability, T/C [28]: 66.1%
viability, T/C [29]: 88.1%
viability, T/C [30]: 66.2%
viability, T/C [31]: 53.3%
viability, T/C [32]: 56.3%
viability, T/C [33]: 80.9%
viability, T/C [34]: 128%
viability, T/C [35]: 0.38%

CC(=O)OC12COC1CC(O)C1(C)C(=O)C(O)C3=C(C)C(OC(=O)C(O)C(NC(=O)OC(C)(C)C)c4ccccc4)CC(O)(C(OC(=O)c4ccccc4)C21)C3(C)C (configuration not stated) + COc1cc2nc(C)nc(NC(C)c3cc(N)cc(C(F)(F)F)c3)c2cc1OC1CCOC1
IC50 [1]: > 3160 nM
IC50 [2]: > 3160 nM
IC50 [3]: > 3160 nM
IC50 [4]: > 3160 nM
IC50 [5]: > 3160 nM
viability, T/C [36]: 123%
viability, T/C [6]: 115%
viability, T/C [7]: 98.3%
viability, T/C [8]: 122%
viability, T/C [9]: 92%
viability, T/C [10]: 94.6%
viability, T/C [37]: 99%
viability, T/C [12]: 112%
viability, T/C [13]: 99%
viability, T/C [14]: 71.6%
viability, T/C [15]: 66.9%
viability, T/C [16]: 78.9%
viability, T/C [38]: 91.3%
viability, T/C [18]: 76.1%
viability, T/C [19]: 105%
viability, T/C [20]: 89.8%
viability, T/C [21]: 110%
viability, T/C [22]: 90.9%
viability, T/C [39]: 72%
viability, T/C [24]: 112%
viability, T/C [25]: 76.4%
viability, T/C [26]: 79.7%
viability, T/C [27]: 56.1%
viability, T/C [28]: 82.3%
viability, T/C [40]: 112%
viability, T/C [30]: 97.4%
viability, T/C [31]: 65%
viability, T/C [32]: 62.7%
viability, T/C [33]: 66.5%
viability, T/C [34]: 96.8%

CC1COCCN1c1cc(-c2ccnn2C)c2ccnc(-c3ccn[nH]3)c2n1 (configuration not stated) + COc1cc2nc(C)nc(NC(C)c3cc(N)cc(C(F)(F)F)c3)c2cc1OC1CCOC1
IC50 [1]: 1400 nM
IC50 [2]: 1220 nM
IC50 [3]: 672 nM
IC50 [4]: 319 nM
IC50 [5]: 138 nM
viability, T/C [36]: 80.5%
viability, T/C [6]: 69.2%
viability, T/C [7]: 76.3%
viability, T/C [8]: 57.6%
viability, T/C [9]: 57.3%
viability, T/C [10]: 40%
viability, T/C [37]: 74.1%
viability, T/C [12]: 62.8%
viability, T/C [13]: 68.7%
viability, T/C [14]: 61.5%
viability, T/C [15]: 56.2%
viability, T/C [16]: 28.2%
viability, T/C [38]: 65.9%
viability, T/C [18]: 67.6%
viability, T/C [19]: 56.8%
viability, T/C [20]: 53.7%
viability, T/C [21]: 51.3%
viability, T/C [22]: 30%
viability, T/C [39]: 65.3%
viability, T/C [24]: 59%
viability, T/C [25]: 53.9%
viability, T/C [26]: 50.1%
viability, T/C [27]: 28.4%
viability, T/C [28]: 37.6%
viability, T/C [40]: 92.7%
viability, T/C [30]: 75.5%
viability, T/C [31]: 61.8%
viability, T/C [32]: 28.2%
viability, T/C [33]: 15%
viability, T/C [34]: 19.9%
